From patent US7851637B2, “Compounds and methods for inhibiting the interaction of BCL proteins with binding partners” (Infinity Pharmaceuticals, Inc., priority 2004, dated 2010)
pKi: −log10 of the molar value.

Legend:
Bcl-xL = Bcl-xL (Homo sapiens, UniProt Q07817); assay: Bcl-xL binding affinity analysis (fluorescence polarization binding assay); design: scale not given here
Text: (§1) Bcl-2 and Bcl-xL binding can be determined using a variety of known methods. One such assay is a sensitive and quantitative in vitro binding assay using fluorescence polarization (FP) described by Wang, J. -L.; Zhang, Z -J.; Choksi, S.; Sjam. S.; Lu, Z.; Croce, C. M.; Alnenri, E. S.; Komgold, R.; Huang, Z. Cell permeable Bcl-2 binding peptides: a chemical approach to apoptosis induction in tumor cells. Cancer Res. 2000, 60, 1498-1502).
(§2) Bcl-2 and Bcl-xL binding affinity analysis data is presented below for various compounds of the invention.

Bcl-2 = Bcl-2 (Homo sapiens, UniProt P10415); assay: Bcl-2 binding affinity analysis (fluorescence polarization binding assay)
Text: as §1, §2

Bcl-2, sequence (P10415 whole entry): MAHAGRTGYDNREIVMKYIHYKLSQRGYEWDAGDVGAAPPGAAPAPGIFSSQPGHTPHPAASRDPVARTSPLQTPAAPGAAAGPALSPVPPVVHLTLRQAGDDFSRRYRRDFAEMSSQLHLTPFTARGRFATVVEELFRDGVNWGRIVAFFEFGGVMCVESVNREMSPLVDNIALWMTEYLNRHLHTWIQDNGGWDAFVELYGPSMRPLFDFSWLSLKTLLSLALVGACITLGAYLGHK
Bcl-xL, sequence (Q07817 whole entry): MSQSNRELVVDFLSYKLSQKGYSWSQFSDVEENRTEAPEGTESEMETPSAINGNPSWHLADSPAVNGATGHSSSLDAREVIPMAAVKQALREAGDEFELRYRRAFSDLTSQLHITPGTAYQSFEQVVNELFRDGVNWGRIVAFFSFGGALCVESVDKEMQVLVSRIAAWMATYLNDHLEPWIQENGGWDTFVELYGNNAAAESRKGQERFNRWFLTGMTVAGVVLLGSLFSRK

SMILES: CC(C)[C@@H](CN(C)C)NC(=O)c1cccc(-c2cccc(CN3O[C@@H](CO)[C@@H]([C@H](C)O)[C@H]3C(=O)N[C@H]3C[C@H]4C[C@@H]([C@@H]3C)C4(C)C)c2)c1 [Compound 100]
- Bcl-XL binding affinity Ki (Bcl-xL): ♯
- pKi (Bcl-2): > 6.10

SMILES: CC(C)[C@H](CN(C)C)NC(=O)c1cccc(-c2cccc(CN3O[C@@H](CO)[C@@H]([C@H](C)O)[C@H]3C(=O)N[C@H]3C[C@H]4C[C@@H]([C@@H]3C)C4(C)C)c2)c1 [Compound 103]
- Bcl-XL binding affinity Ki (Bcl-xL): ♯
- pKi (Bcl-2): > 6.10

SMILES: C[C@@H]1[C@@H](NC(=O)[C@@H]2[C@H]([C@H](C)O)[C@H](CO)ON2Cc2cccc(-c3cccc(C(=O)NC[C@@H]4CCCN4C)c3)c2)C[C@H]2C[C@@H]1C2(C)C [Compound 104]
- Bcl-XL binding affinity Ki (Bcl-xL): ♯
- pKi (Bcl-2): > 6.10

SMILES: C[C@@H]1[C@@H](NC(=O)[C@@H]2[C@H]([C@H](C)O)[C@H](CO)ON2Cc2cccc(-c3cccc(C(=O)NCCN4CCCCC4)c3)c2)C[C@H]2C[C@@H]1C2(C)C [Compound 105]
- Bcl-XL binding affinity Ki (Bcl-xL): ♯
- pKi (Bcl-2): > 6.10

SMILES: CCN1CCC[C@@H]1CNC(=O)c1cccc(-c2cccc(CN3O[C@@H](CO)[C@@H]([C@H](C)O)[C@H]3C(=O)N[C@H]3C[C@H]4C[C@@H]([C@@H]3C)C4(C)C)c2)c1 [Compound 106]
- Bcl-XL binding affinity Ki (Bcl-xL): ♯
- pKi (Bcl-2): > 6.10

SMILES: C[C@@H]1[C@@H](NC(=O)[C@@H]2[C@H]([C@H](C)O)[C@H](CO)ON2Cc2cccc(-c3cccc(C(=O)NCCN(C)C)c3)c2)C[C@H]2C[C@@H]1C2(C)C [Compound 107]
- Bcl-XL binding affinity Ki (Bcl-xL): ♯
- pKi (Bcl-2): > 6.10

SMILES: CCN(CC)C(=O)c1ccc(-c2cccc(CN3O[C@@H](CO)[C@@H]([C@H](C)O)[C@H]3C(=O)N[C@H]3C[C@H]4C[C@@H]([C@@H]3C)C4(C)C)c2)cc1 [Compound 108]
- Bcl-XL binding affinity Ki (Bcl-xL): ♯
- pKi (Bcl-2): > 6.10

SMILES: C[C@@H]1[C@@H](NC(=O)[C@@H]2[C@H]([C@H](C)O)[C@H](CO)ON2Cc2cccc(-c3ccc(C(=O)N4CCOCC4)cc3)c2)C[C@H]2C[C@@H]1C2(C)C [Compound 109]
- Bcl-XL binding affinity Ki (Bcl-xL): ♯
- pKi (Bcl-2): > 6.10

SMILES: CC(CN(C)C)NC(=O)c1cccc(-c2cccc(CN3O[C@@H](CO)[C@@H]([C@H](C)O)[C@H]3C(=O)N[C@H]3C[C@H]4C[C@@H]([C@@H]3C)C4(C)C)c2)c1 (stereo partly shown) [Compound 110]
- Bcl-XL binding affinity Ki (Bcl-xL): ♯
- pKi (Bcl-2): > 6.10

SMILES: C[C@@H]1[C@@H](NC(=O)[C@@H]2[C@H]([C@H](C)O)[C@H](CO)ON2Cc2cccc(-c3cccc(C(=O)NCCCN4CCCCC4)c3)c2)C[C@H]2C[C@@H]1C2(C)C [Compound 111]
- Bcl-XL binding affinity Ki (Bcl-xL): ♯
- pKi (Bcl-2): > 6.10

SMILES: CCN(CC)CCNC(=O)c1cccc(-c2cccc(CN3O[C@@H](CO)[C@@H]([C@H](C)O)[C@H]3C(=O)N[C@H]3C[C@H]4C[C@@H]([C@@H]3C)C4(C)C)c2)c1 [Compound 112]
- Bcl-XL binding affinity Ki (Bcl-xL): ♯
- pKi (Bcl-2): > 6.10

SMILES: C[C@@H]1[C@@H](NC(=O)[C@@H]2[C@H]([C@H](C)O)[C@H](CO)ON2Cc2cccc(-c3cccc(C(=O)NCCCCN(C)C)c3)c2)C[C@H]2C[C@@H]1C2(C)C [Compound 113]
- Bcl-XL binding affinity Ki (Bcl-xL): ♯
- pKi (Bcl-2): > 6.10

SMILES: C[C@@H]1[C@@H](NC(=O)[C@@H]2[C@H]([C@H](C)O)[C@H](CO)ON2Cc2cccc(-c3cccc(C(=O)N[C@H]4CCNC4)c3)c2)C[C@H]2C[C@@H]1C2(C)C [Compound 114]
- Bcl-XL binding affinity Ki (Bcl-xL): ♯
- pKi (Bcl-2): > 6.10

SMILES: C[C@@H]1[C@@H](NC(=O)[C@@H]2[C@H]([C@H](C)O)[C@H](CO)ON2Cc2cccc(-c3ccc(S(C)(=O)=O)cc3)c2)C[C@H]2C[C@@H]1C2(C)C [Compound 115]
- Bcl-XL binding affinity Ki (Bcl-xL): ♯
- pKi (Bcl-2): > 6.10

SMILES: C[C@@H]1[C@@H](NC(=O)[C@@H]2[C@H]([C@H](C)O)[C@H](CO)ON2Cc2cccc(-c3cccc(C(=O)NCCN4CCN(C)CC4)c3)c2)C[C@H]2C[C@@H]1C2(C)C [Compound 116]
- Bcl-XL binding affinity Ki (Bcl-xL): ♯
- pKi (Bcl-2): > 6.10

SMILES: C[C@@H]1[C@@H](NC(=O)[C@@H]2[C@H]([C@H](C)O)[C@H](CO)ON2Cc2cccc(-c3ccc(-n4ccnc4)cc3)c2)C[C@H]2C[C@@H]1C2(C)C [Compound 117]
- Bcl-XL binding affinity Ki (Bcl-xL): ♯♯
- pKi (Bcl-2): > 6.10

SMILES: C[C@@H]1[C@@H](NC(=O)[C@@H]2[C@H]([C@H](C)O)[C@H](CO)ON2Cc2cccc(-c3ccc(C(=O)N(C)C)cc3)c2)C[C@H]2C[C@@H]1C2(C)C [Compound 118]
- Bcl-XL binding affinity Ki (Bcl-xL): ♯
- pKi (Bcl-2): > 6.10

SMILES: C[C@@H]1[C@@H](NC(=O)[C@@H]2[C@H]([C@H](C)O)[C@H](CO)ON2Cc2cccc(-c3cccc(C(=O)N4CC[C@H](N(C)C)C4)c3)c2)C[C@H]2C[C@@H]1C2(C)C [Compound 119]
- Bcl-XL binding affinity Ki (Bcl-xL): ♯♯
- pKi (Bcl-2): > 6.10

SMILES: C[C@@H]1[C@@H](NC(=O)[C@@H]2[C@H]([C@H](C)O)[C@H](CO)ON2Cc2cccc(-c3ccc(S(N)(=O)=O)cc3)c2)C[C@H]2C[C@@H]1C2(C)C [Compound 120]
- Bcl-XL binding affinity Ki (Bcl-xL): ♯♯
- pKi (Bcl-2): > 6.10

SMILES: C[C@@H]1[C@@H](NC(=O)[C@@H]2[C@H]([C@H](C)O)[C@H](CO)ON2Cc2cccc(-c3cccc(C(=O)NCCCO)c3)c2)C[C@H]2C[C@@H]1C2(C)C [Compound 121]
- Bcl-XL binding affinity Ki (Bcl-xL): ♯♯
- pKi (Bcl-2): > 6.10

SMILES: CCNC(=O)c1cccc(-c2cccc(CN3O[C@@H](CO)[C@@H]([C@H](C)O)[C@H]3C(=O)N[C@H]3C[C@H]4C[C@@H]([C@@H]3C)C4(C)C)c2)c1 [Compound 122]
- Bcl-XL binding affinity Ki (Bcl-xL): ♯♯
- pKi (Bcl-2): > 6.10

SMILES: C[C@@H]1[C@@H](NC(=O)[C@@H]2[C@H]([C@H](C)O)[C@H](CO)ON2Cc2cccc(-c3cccc(C(=O)NCCCn4ccnc4)c3)c2)C[C@H]2C[C@@H]1C2(C)C [Compound 123]
- Bcl-XL binding affinity Ki (Bcl-xL): ♯
- pKi (Bcl-2): > 6.10

SMILES: CON(C)C(=O)c1ccc(-c2cccc(CN3O[C@@H](CO)[C@@H]([C@H](C)O)[C@H]3C(=O)N[C@H]3C[C@H]4C[C@@H]([C@@H]3C)C4(C)C)c2)cc1 [Compound 124]
- Bcl-XL binding affinity Ki (Bcl-xL): ♯
- pKi (Bcl-2): > 6.10

SMILES: C[C@@H]1[C@@H](NC(=O)[C@@H]2[C@H]([C@H](C)O)[C@H](CO)ON2Cc2cccc(-c3cccc(C(=O)N4CCCN(C)CC4)c3)c2)C[C@H]2C[C@@H]1C2(C)C [Compound 125]
- Bcl-XL binding affinity Ki (Bcl-xL): ♯♯
- pKi (Bcl-2): > 6.10

SMILES: C[C@@H]1[C@@H](NC(=O)[C@@H]2[C@H]([C@H](C)O)[C@H](CO)ON2Cc2cccc(-c3cccc(C(=O)N[C@H]4CCN(C)C4)c3)c2)C[C@H]2C[C@@H]1C2(C)C [Compound 126]
- Bcl-XL binding affinity Ki (Bcl-xL): ♯
- pKi (Bcl-2): > 6.10

SMILES: C[C@@H]1[C@@H](NC(=O)[C@@H]2[C@H]([C@H](C)O)[C@H](CO)ON2Cc2cccc(-c3cccc(C(=O)NCCc4c[nH]cn4)c3)c2)C[C@H]2C[C@@H]1C2(C)C [Compound 127]
- Bcl-XL binding affinity Ki (Bcl-xL): ♯♯
- pKi (Bcl-2): > 6.10

SMILES: C[C@@H]1[C@@H](NC(=O)[C@@H]2[C@H]([C@H](C)O)[C@H](CO)ON2Cc2cccc(-c3ccc4c(c3)C(=O)N(C)C4=O)c2)C[C@H]2C[C@@H]1C2(C)C [Compound 128]
- Bcl-XL binding affinity Ki (Bcl-xL): ♯
- pKi (Bcl-2): > 6.10

SMILES: C[C@@H]1[C@@H](NC(=O)[C@@H]2[C@H]([C@H](C)O)[C@H](CO)ON2Cc2cccc(-c3cccc(C(=O)N4CCN(C)CC4)c3)c2)C[C@H]2C[C@@H]1C2(C)C [Compound 129]
- Bcl-XL binding affinity Ki (Bcl-xL): ♯♯
- pKi (Bcl-2): > 6.10

SMILES: C[C@@H]1[C@@H](NC(=O)[C@@H]2[C@H]([C@H](C)O)[C@H](CO)ON2Cc2cccc(-c3ccc(S(=O)(=O)N(C)C)cc3)c2)C[C@H]2C[C@@H]1C2(C)C [Compound 130]
- Bcl-XL binding affinity Ki (Bcl-xL): ♯♯
- pKi (Bcl-2): > 6.10

SMILES: C[C@@H]1[C@@H](NC(=O)[C@@H]2[C@H]([C@H](C)O)[C@H](CO)ON2Cc2cccc(-c3cccc(C(=O)NCCN(CCO)CCO)c3)c2)C[C@H]2C[C@@H]1C2(C)C [Compound 131]
- Bcl-XL binding affinity Ki (Bcl-xL): ♯
- pKi (Bcl-2): > 6.10

SMILES: C[C@@H]1[C@@H](NC(=O)[C@@H]2[C@H]([C@H](C)O)[C@H](CO)ON2Cc2cccc(-c3cccc(C(=O)NCCN4CCOCC4)c3)c2)C[C@H]2C[C@@H]1C2(C)C [Compound 132]
- Bcl-XL binding affinity Ki (Bcl-xL): ♯♯
- pKi (Bcl-2): > 6.10

SMILES: C[C@@H]1[C@@H](NC(=O)[C@@H]2[C@H]([C@H](C)O)[C@H](CO)ON2Cc2cccc(-c3ccc4c(=O)n(C)n(C)c(=O)c4c3)c2)C[C@H]2C[C@@H]1C2(C)C [Compound 133]
- Bcl-XL binding affinity Ki (Bcl-xL): ♯
- pKi (Bcl-2): > 6.10

SMILES: C[C@@H]1[C@@H](NC(=O)[C@@H]2[C@H]([C@H](C)O)[C@H](CO)ON2Cc2cccc(-c3ccc(C(N)=O)cc3)c2)C[C@H]2C[C@@H]1C2(C)C [Compound 134]
- Bcl-XL binding affinity Ki (Bcl-xL): ♯
- pKi (Bcl-2): > 6.10

SMILES: CCCNC(=O)c1cccc(-c2cccc(CN3O[C@@H](CO)[C@@H]([C@H](C)O)[C@H]3C(=O)N[C@H]3C[C@H]4C[C@@H]([C@@H]3C)C4(C)C)c2)c1 [Compound 135]
- Bcl-XL binding affinity Ki (Bcl-xL): ♯♯
- pKi (Bcl-2): > 6.10

SMILES: C[C@@H]1[C@@H](NC(=O)[C@@H]2[C@H]([C@H](C)O)[C@H](CO)ON2Cc2cccc(-c3ccc(C(=O)N(C)C)c([N+](=O)[O-])c3)c2)C[C@H]2C[C@@H]1C2(C)C [Compound 136]
- Bcl-XL binding affinity Ki (Bcl-xL): ♯
- pKi (Bcl-2): > 6.10

SMILES: C[C@@H]1[C@@H](NC(=O)[C@@H]2[C@H]([C@H](C)O)[C@H](CO)ON2Cc2cccc(-c3cccc(C(=O)N[C@@H]4CCN(C)C4)c3)c2)C[C@H]2C[C@@H]1C2(C)C [Compound 137]
- Bcl-XL binding affinity Ki (Bcl-xL): ♯
- pKi (Bcl-2): > 6.10

SMILES: C[C@@H]1[C@@H](NC(=O)[C@@H]2[C@H]([C@H](C)O)[C@H](CO)ON2Cc2cccc(-c3cccc(C(=O)NCC4CC4)c3)c2)C[C@H]2C[C@@H]1C2(C)C [Compound 145]
- Bcl-XL binding affinity Ki (Bcl-xL): ♯♯
- pKi (Bcl-2): > 6.10

SMILES: CC(=O)NCCNC(=O)c1cccc(-c2cccc(CN3O[C@@H](CO)[C@@H]([C@H](C)O)[C@H]3C(=O)N[C@H]3C[C@H]4C[C@@H]([C@@H]3C)C4(C)C)c2)c1 [Compound 146]
- Bcl-XL binding affinity Ki (Bcl-xL): ♯
- pKi (Bcl-2): > 6.10
